Laboratory results published in paper PMC8975999, “Inhibition of RIPK1 by ZJU-37 promotes oligodendrocyte progenitor proliferation and remyelination via NF-κB pathway” (Cell Death Discovery, 2022).

Biological target: T1, RIPK1 (receptor interacting serine/threonine protein kinase 1) (Homo sapiens, UniProt Q13546)
T1 construct: Flag-RIPK1 immunoprecipitated from HEK293T cells
T1 sequence (Q13546 1-671): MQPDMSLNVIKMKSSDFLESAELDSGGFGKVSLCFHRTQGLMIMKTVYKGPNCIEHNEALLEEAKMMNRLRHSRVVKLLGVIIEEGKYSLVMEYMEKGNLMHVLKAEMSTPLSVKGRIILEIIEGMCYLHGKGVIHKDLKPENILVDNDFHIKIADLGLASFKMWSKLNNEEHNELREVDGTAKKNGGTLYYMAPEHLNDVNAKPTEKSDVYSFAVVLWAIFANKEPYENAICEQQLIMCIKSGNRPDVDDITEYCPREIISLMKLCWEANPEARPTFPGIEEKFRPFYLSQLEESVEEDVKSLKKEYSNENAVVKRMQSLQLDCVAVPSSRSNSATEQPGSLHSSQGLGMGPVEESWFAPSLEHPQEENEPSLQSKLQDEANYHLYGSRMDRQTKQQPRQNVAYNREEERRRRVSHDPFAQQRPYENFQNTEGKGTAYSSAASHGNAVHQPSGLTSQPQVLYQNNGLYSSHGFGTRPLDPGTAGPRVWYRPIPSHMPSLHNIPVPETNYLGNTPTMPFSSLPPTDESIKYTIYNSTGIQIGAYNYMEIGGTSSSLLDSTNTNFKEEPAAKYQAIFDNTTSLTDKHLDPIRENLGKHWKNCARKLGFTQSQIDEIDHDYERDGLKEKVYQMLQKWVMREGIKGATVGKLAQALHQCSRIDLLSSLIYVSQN
Test: in vitro kinase assay on immunoprecipitated Flag-RIPK1 (Kinase-Glo; p-S166 western blot)
Type: biochemical

IC50: 366 nM
Compound: CN1C(=O)[C@@H](Cc2c[nH]c3c(Cl)c(F)ccc23)N(C=O)C1=O [ZJU-37]
